Test results from publication PMC9221509, “Discovery of a Novel Antimicrobial Peptide, Temporin-PKE, from the Skin Secretion of Pelophylax kl. esculentus, and Evaluation of Its Structure-Activity Relationships” (Biomolecules, 2022).
Converted amounts (≈) assume the structure as drawn.

How the values were obtained:
Assay in all cases: microbe, parasite or virus in culture
[1] = tested on: C. albicans (ATCC CRM 10231); format: cell-based, Candida albicans; conditions: 15 replicates in three independent assays
Experimental: (§1) The antimicrobial activities of peptides were evaluated against the Gram-positive bacteria, S. aureus (ATCC 6538), methicillin-resistant Staphylococcus aureus (MRSA) (NCTC 12493), Enterococcus faecalis (E. faecalis) (NCTC 12697); the Gram-negative bacteria, E. coli (ATCC CRM 8739), Klebsiella pneumoniae (K. pneumoniae) (ATCC 43816), Pseudomonas aeruginosa (P. aeruginosa) (ATCC CRM 9027); and the yeast, Candida albicans (C. albicans) (ATCC CRM 10231). Clinical isolates of MRSA (B042 V2E1 A), E. coli (ATCC BAA-2340), K. pneumoniae (ATCC BAA-1705), and P. aeruginosa (B004 V2S2 B) were also used to determine their antimicrobial activities. The suspension of microorganisms in the logarithmic growth phase with a specific final density (Gram-negative and Gram-positive bacteria: 5 × 10^5 CFU/mL; yeast: 1 × 10^6 CFU/mL) was incubated with different peptide concentrations from 1 µM to 512 µM at 37 °C for 24 h. PBS was used as the negative control, and norfloxacin and amphotericin B were selected as the positive control for bacteria and yeast, respectively. Since the Norfloxacin had weak activities against P. aeruginosa (B004 V2S2 B) and K. pneumoniae (ATCC BAA 1705), gentamicin was used as the positive control for these two bacterial strains. The absorbance of each well was obtained using a microplate reader (EL808, Biolise BioTek, Winooski, VT, USA) set at 550 nm wavelength. The MIC value was the lowest concentration of a peptide that inhibits visible bacterial growth. Once the MIC values were determined, an aliquot from the bacterial culture exposed to the peptide at or above its MIC value was inoculated on a Mueller Hinton agar (MHA) and was incubated at 37 for 18 h. The MBC value was the lowest concentration of a peptide that kills 99.9% of bacteria.

[2] = tested on: K. pneumoniae (ATCC BAA-1705); format: cell-based, Klebsiella pneumoniae; conditions: Klebsiella pneumoniae, ATCCBAA1705, clinical strain, 15 replicates in three independent assays
Experimental: as §1

[3] = tested on: P. aeruginosa (B004 V2S2 B); format: cell-based, Pseudomonas aeruginosa; conditions: Pseudomonas aeruginosa, clinical strain, 15 replicates in three independent assays
Experimental: as §1

MRSA (NCTC 12493) = format: cell-based, methicillin-resistant Staphylococcus aureus; conditions: Staphylococcus aureus, 15 replicates in three independent assays
Experimental: as §1

MRSA (B042 V2E1 A) = format: cell-based, methicillin-resistant Staphylococcus aureus; conditions: Staphylococcus aureus, MRSA, clinical strain, 15 replicates in three independent assays
Experimental: as §1

[4] = tested on: K. pneumoniae (ATCC 43816); format: cell-based, Klebsiella pneumoniae; conditions: Klebsiella pneumoniae, ATCC43816, 15 replicates in three independent assays
Experimental: as §1

[5] = tested on: P. aeruginosa (ATCC CRM 9027); format: cell-based, Pseudomonas aeruginosa; conditions: Pseudomonas aeruginosa, 15 replicates in three independent assays
Experimental: as §1

S. aureus (ATCC 6538) = format: cell-based, Staphylococcus aureus; conditions: Staphylococcus aureus, ATCC6538, 15 replicates in three independent assays
Experimental: as §1

E. faecalis (NCTC 12697) = format: cell-based, Enterococcus faecalis; conditions: Enterococcus faecalis, NCTC12697, 15 replicates in three independent assays
Experimental: as §1

E. coli (ATCC BAA-2340) = format: cell-based, Escherichia coli; conditions: Escherichia coli, ATCCBAA2340, clinical strain, 15 replicates in three independent assays
Experimental: as §1

E. coli (ATCC CRM 8739) = format: cell-based, Escherichia coli; conditions: Escherichia coli, 15 replicates in three independent assays
Experimental: as §1

[6] = 5 × 10^5 CFU/mL, 37 °C, 24 h, 1-512 µM, absorbance 550 nm, read-out: MIC
[7] = aliquot plated on MHA, 18 h, kills 99.9%, read-out: MBC

C[C@@H]1[C@H](O)[C@@H](C)/C=C/C=C/C=C/C=C/C=C/C=C/C=C/[C@H](O[C@@H]2O[C@H](C)[C@@H](O)[C@H](N)[C@@H]2O)C[C@@H]2O[C@](O)(C[C@@H](O)C[C@@H](O)[C@H](O)CC[C@@H](O)C[C@@H](O)CC(=O)O[C@H]1C)C[C@H](O)[C@H]2C(=O)O [amphotericin B, reference compound]
MBC ([1]; Candida albicans, aliquot plated on MHA, 18 h, kills 99.9%, read-out: MBC): 4 µM (≈ 3.7 µg/mL) | MIC ([1]; yeast 1 × 10^6 CFU/mL, 37 °C, 24 h, 1-512 µM, absorbance 550 nm, read-out: MIC): 4 µM (≈ 3.7 µg/mL)

CNC(C)C1CCC(N)C(OC2C(N)CC(N)C(OC3OCC(C)(O)C(NC)C3O)C2O)O1 (stereo not shown) [Gentamicin, reference compound]
MIC [2, 6]: 2 µM (≈ 0.955 µg/mL) | MBC [2, 7]: 2 µM (≈ 0.955 µg/mL) | MIC [3, 6]: 1 µM (≈ 0.478 µg/mL) | MBC [3, 7]: 1 µM (≈ 0.478 µg/mL)

CCn1cc(C(=O)O)c(=O)c2cc(F)c(N3CCNCC3)cc21 [Norfloxacin, reference compound]
MIC (MRSA (NCTC 12493); [6]): 2 µM (≈ 0.639 µg/mL) | MBC (MRSA (NCTC 12493); [7]): 2 µM (≈ 0.639 µg/mL) | MIC (MRSA (B042 V2E1 A); [6]): 2 µM (≈ 0.639 µg/mL) | MBC (MRSA (B042 V2E1 A); [7]): 2 µM (≈ 0.639 µg/mL) | MIC [4, 6]: 2 µM (≈ 0.639 µg/mL) | MBC [4, 7]: 2 µM (≈ 0.639 µg/mL) | MIC [5, 6]: 2 µM (≈ 0.639 µg/mL) | MBC [5, 7]: 2 µM (≈ 0.639 µg/mL) | MIC (S. aureus (ATCC 6538); [6]): 2 µM (≈ 0.639 µg/mL) | MBC (S. aureus (ATCC 6538); aliquot plated on MHA, 18 h, kills 99.9% of bacteria, read-out: MBC): 2 µM (≈ 0.639 µg/mL) | MIC (E. faecalis (NCTC 12697); [6]): 4 µM (≈ 1.28 µg/mL) | MBC (E. faecalis (NCTC 12697); [7]): 4 µM (≈ 1.28 µg/mL) | MIC (E. coli (ATCC BAA-2340); [6]): 2 µM (≈ 0.639 µg/mL) | MBC (E. coli (ATCC BAA-2340); [7]): 2 µM (≈ 0.639 µg/mL) | MIC (E. coli (ATCC CRM 8739); [6]): 1 µM (≈ 0.319 µg/mL) | MBC (E. coli (ATCC CRM 8739); [7]): 1 µM (≈ 0.319 µg/mL)
